Measurements reported in US20240307374A1, “FORMULATION OF FURIN INHIBITOR FOR INHALATION” (BP ASSET V, INC., priority 2021, published 2024).
“Also recorded” adds a separate entry of the source.

Legend:
[1] = Phase I PK study, intranasal, cotton rats (plasma, lungs, BAL); format: in vivo, Sigmodon hispidus cotton rats
Excerpt: (§1) Fifty (50) inbred, 6-8 week old, Sigmodon hispidus female and male cotton rats (source: Sigmovir Biosystems, Inc., Rockville MD) were maintained and handled under veterinary supervision in accordance with the National Institutes of Health guidelines and Sigmovir Institutional Animal Care and Use Committee's approved animal study protocol (IACUC Protocol #15). Fifteen animals were used in Phase I and 35 animals in Phase II studies. Each group of 5 animals included 3 females (the first three animals in each group) and 2 males (the last 2 animals in each group). Groups of even number of animals included equal number of males and females. Cotton rats were housed in clear polycarbonate cages and provided with standard rodent chow (Harlan #7004) and tap water ad lib.
To prepare excipient solution, 125 mg of citric acid anhydrous and 972 mg of lactose anhydrous were dissolved in water by adding 6 ml to the powder. The solution was vortexed. Final volume was adjusted to 10 mL with water for final concentration of 65 mM citric acid anhydrous and 284 mM lactose anhydrous. The solution was stored at 4±2° C.
(§2) Step 1. Divided 15 young S. hispidus (6-8 week old) between 3 groups (3 females and 2 males per group). Eartaged, weighed, and eyebleed all animals under isoflurane anesthesia for serum and plasma. Treated all animals intranasally with the solution indicated in Table 8-1 below, 5 0 μl/100 g animal (administered in both nostrils).
(§3) Step 2. Measured weight, collected clinical observations (e.g., changes in appearance, movement, posture), and repeated treatments on all animals as in Step 1.
Step 3. Measured weight, collected clinical observations (e.g., changes in appearance, movement, posture), and repeated treatments on all animals as in Step 1.
Step 4. Measured weight, collected clinical observations (e.g., changes in appearance, movement, posture), and repeated treatments on all animals as in Step 1.
Step 5. Measured weight, collected clinical observations, and repeated treatment on all animals as described in Step 1. After 1 h Step 6, terminally bled one animal from each group, followed by the necropsy with gross pathology examination and collection of BAL (right lung) and lung samples (left lung) for the PK assessment. After 3 h Step 7, terminally bled the second animal from each group, followed by the necropsy with gross pathology examination and collection of BAL and lung samples for the PK assessment.
Step 8. Terminally bled the third animal from each group, followed by the necropsy with gross pathology examination and collection of BAL and lung samples for the PK assessment.
Step 9. […]
Step 10. Measured weight and collected clinical observations on the remaining animals. […]

[2] = Tolerability (weight, clinical observations, gross pathology) in the Phase I study; format: in vivo, Sigmodon hispidus cotton rats
Excerpt: as §1, §2, §3
Step 5. Measured weight, collected clinical observations, and repeated treatment on all animals as described in Step 1. […]

[3] = XRPD before and after drying (form stability on drying); format: physicochemical; conditions: wet cake, vacuum drying at RT for about 3 hours

SMILES | dose dependence of concentration in plasma and lungs ([1]; 0.1, 0.3, 1 mg/kg, highest level with 1 mg/kg 1 hr post-treatment) | persistence of level in plasma and lungs ([1]; after last intranasal dose, depending on the dose) | detection in BALF ([1]; intranasal QD for 5 days, 0.1, 0.3, 1 mg/kg per day) | detection in plasma and lungs ([1]; intranasal QD for 5 days, 0.1, 0.3, 1 mg/kg per day, 1-24 h after last dose) | noticeable effect (blood clotting) ([2]; highest dose 1 mg/kg/day, one animal, terminal bleed) | tolerability ([2]; intranasal QD for 5 consecutive days, 0.1, 0.3, 1 mg/kg per day) | form change on drying (XRPD) [3]
CC(=O)NCC1CCN(Cc2cc(Oc3ccc(N4CCN(CCC(=O)O)CC4)nc3)nc(-c3cc(Cl)cc(Cl)c3)c2)CC1 [Compound (I)] | dose-dependent effect | remained elevated for several hours | much less so in BALF | detectable in the plasma and lungs | apparent increase in blood clotting time in one of the animals | well tolerated | 
CC(=O)NCC1CCN(Cc2cc(Oc3ccc(N4CCN(CCC(=O)O)CC4)nc3)nc(-c3cc(Cl)cc(Cl)c3)c2)CC1 [Freeform Type C] |  |  |  |  |  |  | transformed to freeform Type A; also recorded: Transferred to freeform Type A after drying at RT
